Values quoted from earlier work as cited in US7491713B2, “CGRP receptor antagonists” (Merck + Co., Inc., priority 2004, dated 2009).
Ends that are not written are not given here.

Key:
marmoset = marmoset (Doods et al. 2000)
rat = rat (Escott et al. 1995)
rats = conditions: prior administration (Williamson et al. 1997)

Compound: NCCCC[C@H](NC(=O)[C@@H](Cc1cc(Br)c(O)c(Br)c1)NC(=O)N1CCC(N2Cc3ccccc3NC2=O)CC1)C(=O)N1CCN(c2ccncc2)CC1 [BIBN4096BS]
- effect on stimulation-induced increase of facial blood flow (marmoset): blocked

Compound: CGRP(8-37): a fragment of CGRP that lacks seven N-terminal amino acid residues; a peptide CGRP antagonist (VTHRLAGLLSRSGGVVKNNFVPTNVGSKAF; ends and bridges not checked; UniProt P06881 90-119, looked up, fragment)
- effect on stimulation-induced increase of facial blood flow (rat): inhibited
- effect on stimulation-induced increase of middle meningeal artery diameter (rats): blocked
